From patent US12099061B2, “Nidogen 1 as a diagnostic marker and therapeutic target of hepatocellular carcinoma, composition and methods thereof” (THE UNIVERSITY OF HONG KONG, priority 2020, dated 2024)

System: MHCC97L cells
Test: EV secretion of MHCC97L cells treated with Tipifarnib
Type: cell-based, human
Conditions: 1 μM Tipifarnib for 48 hr; EVs isolated from conditioned medium
Method: FIGS. 11A-11B Reduction of EV secretion attenuates liver tumor formation. (A) Quantification of EVs isolated from conditioned medium of MHCC97L treated with 1 μM Tipifarnib or DMSO vehicle for 48 hr. The analysis was done in triplicate. (B) Image of dissected liver of mice subjected to orthotopic liver injection of Matrigel/MHCC97L (1×10^6 cells/injection) pretreated with 48-hr DMSO or Tipifarnib (1 μM) (n=6). Measurement of tumor volume is shown. Data are represented as mean±SEM. *P<0.05 and ***P<0.001 from Student's t test.
Protein lysates were obtained by cell lysis with NETN lysis buffer (0.1% NP40, 25 mM Tris-HCl, 50 mM […], 0.2 mM EDTA), supplemented with 10% cOmplete™ protease inhibitor cocktail and 10% PhosStop phosphatase inhibitor cocktail (Roche Applied Science). Bradford reagent (Bio-Rad Corporation) using bovine serum albumin as standard concentration was used to quantify protein amount. […] Chemiluminescent signals were detected by ECL™ Western Blotting Detection Reagents (Amersham). […] The level of EV-CD63 was expressed as amount of CD63 over EV protein amount (μg/μg) (w/w). […] The amount of isolated EVs was quantified. […] After 6 weeks post injection, mice were sacrificed and liver tumor volume was measured using a caliper and calculated using the formula: volume=L×W^2×0.5 (L, the largest diameter; W, the smallest diameter). […]

In the case of `Cn1cncc1[C@@](N)(c1ccc(Cl)cc1)c1ccc2c(c1)c(-c1cccc(Cl)c1)cc(=O)n2C` [tipifarnib, Tipifarnib], the “reduction of EV secretion from MHCC97L cells” value is reported as “up to 50%”.
